In patent publication US5688670A, “Self-modifying RNA molecules and methods of making” (The General Hospital Corporation, priority 1994, dated 1997):
pKd: −log10 of the molar value. “And” between values parts separate entries of the source, which are not always exact repeats. Equal entries are not always repeated.

Key:
[1] = test system: polynucleotide kinase ribozyme Class II (Kin.25); test: kinetic analysis of auto-thiophosphorylation by kinase ribozyme; assay type: biochemical
Method: (§1) Because the random pool initially prepared sampled sequence space very sparsely (there are between 4^100 and 10^60 possible 100-mers, but only approximately 10^16 different molecules in the pool), active molecules are likely to be sub-optimal catalysts. Accordingly, three cycles of mutagenic PCR (before selection cycles 7, 8, and 9) were performed to allow the evolution of improvements in the active molecules. Mutagenic PCR was performed as described by Bartel and Szostak (Science, 61:1411, 1993) and by Cadwell and Joyce (PCR Methods Appl., 28, 1992). Briefly, thirty total cycles of PCR were done at each round to yield - 2% mutagenesis. Reactions of pool RNAs were performed either with trace ATP-γ-^35 S, or with 100 μM ATP-γ-S plus additional trace ATP-γ-^35 S. Dithiothreitol (DTT, 10 mM) was included in the reactions. Reactions were quenched by the addition of one volume of 150 mM EDTA, 20 mM DTT in 95% formamide. Reactions were analyzed by electrophoresis on 10% polyacrylamide/8M urea gels. Quantitation was performed using a PhosphorImager (Molecular Dynamics). A known amount of ATP-γ-^35 S was spotted on the gels as a standard. The combined effect of increasing the stringency and performing mutagenic PCR was to increase the activity of the pool by nearly three orders of magnitude from cycle 6 to cycle 13 (FIG. 4).
(§2) Rates for each clone were determined (as described herein) at 6 different ATP-γ-S concentrations, ranging from 2 μM-[…].

[2] = test system: polynucleotide kinase ribozyme Class IV (Kin.44); test: as above; assay type: biochemical; details: 6 ATP-γ-S concentrations
Method: as §1, §2

[3] = test system: polynucleotide kinase ribozyme Class III (Kin.42); test: as above; assay type: biochemical; details: 6 ATP-γ-S concentrations
Method: as §1, §2

[4] = target: ATP-binding RNA clone 19 (C8-ATP series, eighth cycle RNA population); test: binding of individual eighth-cycle clones to ATP-agarose; details: read-out: dissociation constant (Kd)
Method: (§3) A chemically synthesized pool of DNA molecules containing a central region of 120 random nucleotides 5 flanked by constant regions used as primer binding sites was PCR-amplified and transcribed in vitro by T7 RNA polymerase in the presence of [α-^32 P][…]. RNA was ethanol-precipitated and unincorporated nucleotides removed by Sephadex-G50 chromatography. Following a brief incubation at 65° C. in binding buffer (300 mM NaCl, 20 Mm Tris, pH 7.6, 5 mM MgCl2), the RNA was cooled to room temperature before being loaded onto a 1-ml ATP agarose affinity column. […] After washing with 6 column-volumes of binding buffer, bound RNAs were eluted with 3 column-volumes of binding buffer containing 4 mM ATP, then concentrated by precipitation with ethanol. For the first three cycles, an agarose pre-column was used to prevent enrichment of the RNA pool with agarose-binding RNAs, and bound RNAs were eluted with 5 mM EDTA in water rather than affinity-eluted with ATP. After reverse transcription and PCR amplification, DNA templates were transcribed and the resulting RNA was used in the next round of selection. RNA from the eighth round of selection was converted to cDNA, amplified as double-stranded DNA by PCR, digested with EcoR1 and BamHl gel-purified and cloned into the phage M13 based vector pGem3Z (Promega, Madison, Wis.).
(§4) Thirty-nine clones from the eighth cycle RNA population were sequenced seventeen different sequences were found. Of these, the most abundant sequence (C8-ATP-3) occurred 14 times, and 12 sequences occurred just once. […] Clones 2, 3, 8, 15, and 19 were individually tested for binding to ATP-agarose.

[5] = test system: ATP-binding RNA clone 15 (C8-ATP-15); test: as above
Method: as §3, §4

[6] = target: ATP-binding RNA clone 3 (C8-ATP-3, full-length 164-nucleotide RNA); test: as above; details: read-out: dissociation constant (Kd)
Method: as §3, §4

[7] = target: ATP-binding RNA clone 2 (C8-ATP series, eighth cycle RNA population); test: as above; details: read-out: dissociation constant (Kd)
Method: as §3, §4

[8] = target: ATP-binding RNA clone 8 (C8-ATP series, eighth cycle RNA population); test: as above; details: read-out: dissociation constant (Kd)
Method: as §3, §4

[9] = target: Class I aptamer RNA (ATP aptamer region of Class I kinase ribozyme); test: binding of kinase-class aptamer region RNA to C-8 linked ATP agarose; details: no detectable interaction with ATP agarose
Source text: (§5) Either the right or left hand stems of the Class II, VI and VII aptamer regions appear to be missing, and it seems likely that these molecules have found novel modes of binding their substrates. Using run-off transcription of synthetic DNA oligonucleotides (Milligan and Uhlenbeck, Methods Enzymol. 180:51, 1989) the RNAs corresponding to the Class I, III, IV, and V aptamer regions were produced. The Class IV aptamer RNA binds weakly to C-8 linked ATP agarose (Sassanfar and Szostak, supra), consistent with a molecule having a Kd for ATP in the range of 0.05-0.5 mM. […] Presumably, the corresponding classes of kinases have developed novel modes of binding ATP-γ-S.

[10] = target: Class III aptamer RNA (ATP aptamer region of Class III kinase ribozyme); test: as above; details: no detectable interaction with ATP agarose
Source text: as §5

[11] = target: ATP-40-1 RNA variant, base pair U18-A33 changed to C-G; test: Kd of ATP aptamer variant; assay type: binding; details: further decrease after raising Mg+2 to 20 mM
Method: (§6) Isocratic elution (Arnold et al., J. Chromatography 31:1, 1986) from ATP-agarose and equilibrium gel filtration (Fersht, in Enzyme Structure and Mechanism p. 186-188, Freeman, New York, 1985) was used to measure the dissociation constant for the RNA-ATP complex on the column and in solution. […] The Kd for the ATP-agarose complex is an upper estimate, because the fraction of bound ATP that is accessible to the RNA is not known. The solution Kd for adenosine was similar to that of ATP (5-8 μM), but the Kd for dATP was not measurable (>1 mM). The Kd of ATP-40-1 for its ligand dropped to 2 μM when the Mg^+2 concentration was raised from 5 to 20 mM. Changing the base pair U18-A33 to C-G, as found in most of the clones initially selected, further decreased the Kd to 0.7 μM. At almost saturating concentrations of ATP (50 μM), the RNA bound ~0.7 equivalents of ATP. The RNA likely binds its ligands with a stoichiometry of unit.

[12] = target: ATP-40-1 RNA (40-nucleotide ATP aptamer); test: isocratic elution from ATP-C8-agarose column; assay type: binding; details: upper estimate, 5 mM Mg
Method: as §6

[13] = target: ATP-40-1 RNA (40-nucleotide ATP aptamer); test: equilibrium gel filtration (solution Kd); assay type: binding
Method: as §6

[14] = test system: BL2.8-7 self-biotinylating ribozyme (re-selected from BL8-6); test: self-biotinylation time course; assay type: biochemical
Method: The rate of self-biotinylation was determined by a time course experiment. ^32 P-labelled RNA was first resuspended in incubation buffer (100 mM KCl, 10 mM Na-Hepes, pH 7.4, 5 mM MgCl2) and allowed to equilibrate for 10 minutes at room temperature. […] Samples were quenched and affinity purified as described in Haugland, Molecular Probes Handbook of Fluoprescent Probes and Research Chemicals. Aliquots were counted in a scintillation counter following ethanol precipitation (total RNA count) and following binding to streptavidin agarose (product RNA count); the ratio of these two counts is the fraction reacted. Optimizing enzymatic activity: It seemed likely that the original RNA pool from which the BL8-6 ribozyme was derived might not saturate the space of biotin-ligating ribozymes. […]
The background rate of guanosine alkylation by BIE was determined by two independent methods. […] To characterize the functional cores of the two molecules, we analyzed the sequences of active clones isolated from the two mutagenized RNA pools generated from the biotin aptamer and self-alkylating ribozyme sequences. […] Approximately thirty individual RNAs from each of these subcloned pools were sequenced and analyzed to determine which nucleotide positions were conserved and which pairs of nucleotides covaried to maintain Watson-Crick base pairing. […]

[15] = test system: BL8-6 self-biotinylating ribozyme (SEQ ID NO: 91); test: self-biotinylation time course; assay type: biochemical; details: in the presence of 200 μM BIE
Method: The rate of self-biotinylation was determined by a time course experiment. ^32 P-labelled RNA was first resuspended in incubation buffer (100 mM KCl, 10 mM Na-Hepes, pH 7.4, 5 mM MgCl2) and allowed to equilibrate for 10 minutes at room temperature. 200 μM BIE was added to the mixture and aliquots were subsequently removed after 0 to 120 minutes of incubation. Samples were quenched and affinity purified as described in Haugland, Molecular Probes Handbook of Fluoprescent Probes and Research Chemicals. Aliquots were counted in a scintillation counter following ethanol precipitation (total RNA count) and following binding to streptavidin agarose (product RNA count); the ratio of these two counts is the fraction reacted. Optimizing enzymatic activity: It seemed likely that the original RNA pool from which the BL8-6 ribozyme was derived might not saturate the space of biotin-ligating ribozymes. To test the possibility that appropriate additional mutations to the BL8-6 sequence might increase its catalytic activity, a third RNA pool was generated based on its sequence but with non-wild-type nucleotides substituted at each position with 30% probability (FIG. 8D) (using methods described above). […] After eight rounds of selection (ending with a 1 minute incubation period at 10 μM BIE), active clones from the pool were sequenced and assayed for catalytic activity.

[16] = auto-thiophosphorylation, 6 ATP-γ-S concentrations
[17] = equilibrium gel filtration, 5 mM Mg, read-out: Kd (solution)

## Nc1ncnc2c1ncn2[C@@H]1O[C@H](COP(=O)(O)OP(=O)(O)OP(O)(O)=S)[C@@H](O)[C@H]1O [ATP-γ-S]
[1]; [16]
  Km: 41 µM and 42 µM
  kcat: 0.00333 ± 0.00033 s⁻¹ and 0.0055 ± 0.00033 s⁻¹
[1]; self-phosphorylation
  kcat/Km: 100 M⁻¹ s⁻¹
[1]; self-phosphorylation, approximate value
  kcat: approximately 0.3 min^-1
[2]
  kcat: 0.0005 ± 1.7e-05 s⁻¹
[3]
  Km: 50 µM and 58 µM
  kcat: 0.0012 ± 8.3e-05 s⁻¹ and 0.00167 ± 0.000267 s⁻¹

## Nc1ncnc2c1ncn2[C@@H]1O[C@H](COP(=O)(O)OP(=O)(O)OP(=O)(O)O)[C@@H](O)[C@H]1O [ATP]
[4]
  pKd: > 4.30
[5]
  estimated Kd: ~ 250 μM
[6]
  pKd: > 4.30
[7]
  pKd: > 4.30
[8]
  pKd: > 4.30
[9]
  pKd: < 3.30
[10]
  pKd: < 3.30
[11]
  pKd: 6.15
[12]
  pKd: ~4.85
[13]; Mg+2 concentration raised from 5 to 20 mM, method not stated, read-out: Kd
  pKd: 5.70
[13]; [17]
  pKd: 5.10 to 5.22

## O=C(CI)NCCNC(=O)CCCC[C@@H]1SC[C@@H]2NC(=O)N[C@@H]21 [BIE, N-biotinoyl-N'-iodoacetylethylenediamine]
[14]; in the presence of 100 μM BIE
  rate of self-biotinylation: 0.05 min⁻¹
[14]; time course experiment
  catalyzed biotinylation rate: approximately 8 s^-1 M^-1
[15]
  rate of self-biotinylation: 0.001 min⁻¹

## Nc1ncnc2c1ncn2[C@@H]1O[C@H](CO)[C@@H](O)[C@H]1O [adenosine]
[13]; [17]
  pKd: 5.10 to 5.30

## Nc1ncnc2c1ncn2[C@H]1C[C@H](O)[C@@H](COP(=O)(O)OP(=O)(O)OP(=O)(O)O)O1 [dATP]
[13]; not measurable, read-out: Kd (solution)
  pKd: < 3.00
